Values quoted from earlier work as cited in patent US8080517B2, “Cell-permeable peptide inhibitors of the JNK signal transduction pathway” (Xigen SA, priority 2005, dated 2011).

Key:
[1] = transient global ischemia; cited from earlier work
[2] = system: primary embryonic cultures and differentiated PC12 cells; conditions: after trophic withdrawal; also in mice treated with 1-methyl-4-phenyl tetrahydropyridine; cited from earlier work
[3] = system: chick embryonic dorsal root ganglion, sympathetic, ciliary and motor neurons; conditions: cited from earlier work

For N#CC(c1ccnc(NCCc2cccnc2)n1)c1nc2ccccc2s1 (stereo not drawn) [AS601245], the “delayed loss of hippocampal CA1 neurons” value [1] is listed as “significant protection against the delayed loss of hippocampal CA1 neurons”.
In the case of CCSCc1ccc2c(c1)c1c3c(c4c5cc(CSCC)ccc5n5c4c1n2[C@H]1C[C@](O)(C(=O)OC)[C@]5(C)O1)CNC3=O [CEP-1347], the neuronal survival [2] is listed as “promotes neuronal survival at dosages that inhibit activation of the c-Jun amino-terminal kinases (JNKs)” and the “long term-survival of cultured neurons” value [3] is listed as “can promote long term-survival”.
